Assay results published in US20080167188A1, “Herbicide Combinations Comprising Special Ketoenoles” (priority 2004, published 2008).

Columns and labels:
Assay type in all cases: in vivo
TRZAS = experiment: field trial, herbicidal activity against TRZAS; details: 2 to 3 repetitions, highest efficacy of three assessment days, g of a.i./ha: Ex. A.5 20, Glufosinate 400, combination 20 + 400
Description: (§1) The reported results originate from field trials carried out in 2 to 3 repetitions. The weed grasses or crops are sown. The activities are assessed on three days; what is reported are the highest efficacies.

PESGL = experiment: field trial, herbicidal activity against PESGL; details: 2 to 3 repetitions, highest efficacy of three assessment days, g of a.i./ha: Ex. A.5 20, Glufosinate 400, combination 20 + 400
Description: as §1

BROSTE = experiment: field trial, herbicidal activity against BROSTE; details: 2 to 3 repetitions, highest efficacy of three assessment days, g of a.i./ha: Ex. A.1 20, Metazachlor 1000, combination 20 + 1000
Description: as §1

ALOMY = experiment: field trial, herbicidal activity against ALOMY; details: 2 to 3 repetitions, highest efficacy of three assessment days, g of a.i./ha: Ex. A.1 20, Metazachlor 1000, combination 20 + 1000
Description: as §1

AGGRE = experiment: field trial, herbicidal activity against AGGRE; details: 2 to 3 repetitions, highest efficacy of three assessment days, g of a.i./ha: Ex. A.1 20, Metazachlor 1000, combination 20 + 1000
Description: as §1

For CP(=O)(O)CCC(N)C(=O)O (racemic) [Glufosinate (B4.2), 4-[hydroxy(methyl)phosphinoyl]-DL-homoalanine], the “% Activity TRZAS” value (TRZAS) was 20% and the “% Activity PESGL” value (PESGL) was 20%.
In the case of CCc1cc(Cl)cc(OC)c1C1=C(O)C2(CCC(OC)CC2)NC1=O (stereo not shown) [Ex. A.1], the “% Activity BROSTE” value (BROSTE) is reported as 35%, the “% Activity ALOMY” value (ALOMY) is reported as 42% and the “% Activity AGGRE” value (AGGRE) is reported as 60%.
CCOC(=O)OC1=C(c2c(CC)cc(Cl)cc2OC)C(=O)NC12CCC(OC)CC2 (stereo not shown) [Ex. A.5] was tested, and the “% Activity TRZAS” value (TRZAS) was 69% and the “% Activity PESGL” value (PESGL) was 70%.
For Cc1cccc(C)c1N(Cn1cccn1)C(=O)CCl [Metazachlor (B 3.20), 2-chloro-N-(2,6-dimethylphenyl)-N-(1H-pyrazol-1-ylmethyl)acetamide], the “% Activity BROSTE” value (BROSTE) was 45%, the “% Activity ALOMY” value (ALOMY) was 28% and the “% Activity AGGRE” value (AGGRE) was 10%.
